These results are taken from article PMC10148497, “Evaluation of Bacillus aryabhattai B8W22 peroxidase for phenol removal in waste water effluents” (BMC Microbiology, 2023).

The subject of this experiment is T1, peroxidase from Bacillus aryabhattai B8W22.
T1 construct: gene extracellular peroxidase; 66 kDa on SDS-PAGE
Put plainly: peroxidase activity assay, Lineweaver-Burk plot. Type of experiment: biochemical, Priestia aryabhattai. The note with it: co-substrate, pH and temperature of the kinetic assay not given.

In the case of `COc1ccccc1O` [guaiacol], the Km (as a rule, the substrate concentration at which the rate is half of its maximum) is 6.942 mg/mL.
